≈ marks a conversion by molar mass, not a printed value.
What was measured:
[1] = system: Staphylococcus aureus; experiment: Antibacterial activity against Staphylococcus aureus 503; assay type: functional
[2] = system: Pseudomonas aeruginosa; experiment: Antibacterial activity against Pseudomonas aeruginosa 9027; assay type: functional
[3] = system: Escherichia coli; experiment: Antibacterial activity against Escherichia coli 078; assay type: functional
[4] = system: Staphylococcus aureus; experiment: Antibacterial activity against Staphylococcus aureus SG 511; assay type: functional
[5] = system: Enterobacter cloacae; experiment: Antibacterial activity against Enterobacter cloacae 1321E; assay type: functional
[6] = system: Staphylococcus aureus; experiment: Antibacterial activity against Staphylococcus aureus 285; assay type: functional
[7] = system: Klebsiella aerogenes; experiment: Antibacterial activity against Klebsiella aerogenes 1522E; assay type: functional
[8] = system: Mus musculus; experiment: In vivo therapeutic efficacy in systemic infections caused by Escherichia coli 078 in mice, at a single subcutaneous administration; assay type: functional; settings: sc, read-out: PD50
[9] = system: Salmonella typhimurium; experiment: Antibacterial activity against Salmonella Typhimurium; assay type: functional, Salmonella enterica subsp. enterica serovar Typhimurium; settings: Salmonella enterica
[10] = system: Escherichia coli; experiment: Antibacterial activity against Escherichia coli 1507E; assay type: functional
[11] = system: Pseudomonas aeruginosa; experiment: Antibacterial activity against Pseudomonas aeruginosa 1592E; assay type: functional
[12] = system: Pseudomonas aeruginosa; experiment: Antibacterial activity against Pseudomonas aeruginosa 1771M; assay type: functional
[13] = system: Mus musculus; experiment: In vivo therapeutic efficacy in systemic infections caused by Streptococcus pyogenes 77A in mice, at a single subcutaneous administration; assay type: functional; settings: sc, read-out: PD50
[14] = system: Streptococcus pyogenes; experiment: Antibacterial activity against Streptococcus pyogenes 308A; assay type: functional
[15] = Stability to porcine renal DHP-I; assay type: ADME, Sus scrofa; settings: pig
[16] = system: Mus musculus; experiment: In vivo therapeutic efficacy in systemic infections caused by Staphylococcus aureus Y-80-1953 in mice, at a single subcutaneous administration; assay type: functional; settings: sc, read-out: PD50
[17] = system: Mus musculus; experiment: In vivo therapeutic efficacy in systemic infections caused by Pseudomonas aeruginosa 1771M in mice, at a single subcutaneous administration; assay type: functional; settings: sc, read-out: PD50

| Structure (SMILES) | MIC [1] | MIC [2] | MIC [3] | MIC [4] | MIC [5] | MIC [6] | MIC [7] | ED50 [8] | MIC [9] | MIC [10] | MIC [11] | MIC [12] | ED50 [13] | MIC [14] | Relative t1/2 [15] | ED50 [16] | ED50 [17] |
| --- | --- | --- | --- | --- | --- | --- | --- | --- | --- | --- | --- | --- | --- | --- | --- | --- | --- |
| C[C@@H](O)[C@H]1C(=O)N2C(C(=O)O)=C(S[C@@H]3CN[C@H](C(=O)N(C)C)C3)[C@H](C)[C@H]12 [MEROPENEM] | 0.098 µg/mL (≈ 0.256 µM) | 0.195 µg/mL (≈ 0.509 µM) | 0.025 µg/mL (≈ 0.0652 µM) | 0.195 µg/mL (≈ 0.509 µM) | 0.025 µg/mL (≈ 0.0652 µM) | 0.195 µg/mL (≈ 0.509 µM) | 0.049 µg/mL (≈ 0.128 µM) | 1.11 mg/kg | 0.049 µg/mL (≈ 0.128 µM) | 0.025 µg/mL (≈ 0.0652 µM) | 0.195 µg/mL (≈ 0.509 µM) | 0.049 µg/mL (≈ 0.128 µM) | 4.72 mg/kg | 0.013 µg/mL (≈ 0.0339 µM) | 1 | 4.49 mg/kg | 5.43 mg/kg |
| C[C@@H](O)[C@H]1C(=O)N2C(C(=O)O)=C(SCCNC=N)C[C@H]12.O [IMIPENEM] | 0.013 µg/mL | 0.781 µg/mL | 0.098 µg/mL | 0.025 µg/mL | 0.195 µg/mL | 0.025 µg/mL | 0.391 µg/mL | – | 0.781 µg/mL | 0.195 µg/mL | 1.56 µg/mL | 0.195 µg/mL | – | 0.007 µg/mL | 0.19 | – | – |
| C[C@@H](O)[C@H]1C(=O)N2C(C(=O)O)=C(S[C@@H]3CN[C@H](/C=C/c4ccno4)C3)[C@H](C)[C@H]12 | 0.013 µg/mL (≈ 0.0321 µM) | 0.195 µg/mL (≈ 0.481 µM) | 0.025 µg/mL (≈ 0.0617 µM) | 0.025 µg/mL (≈ 0.0617 µM) | 0.025 µg/mL (≈ 0.0617 µM) | 0.049 µg/mL (≈ 0.121 µM) | 0.049 µg/mL (≈ 0.121 µM) | – | 0.049 µg/mL (≈ 0.121 µM) | 0.025 µg/mL (≈ 0.0617 µM) | 0.195 µg/mL (≈ 0.481 µM) | 0.098 µg/mL (≈ 0.242 µM) | – | 0.004 µg/mL (≈ 0.00986 µM) | 1.95 | – | – |
| C[C@@H](O)[C@H]1C(=O)N2C(C(=O)O)=C(S[C@@H]3CN[C@H](/C=C/c4ccsn4)C3)[C@H](C)[C@H]12 | 0.013 µg/mL (≈ 0.0308 µM) | 1.56 µg/mL (≈ 3.71 µM) | 0.049 µg/mL (≈ 0.116 µM) | 0.025 µg/mL (≈ 0.0593 µM) | 0.025 µg/mL (≈ 0.0593 µM) | 0.025 µg/mL (≈ 0.0593 µM) | 0.098 µg/mL (≈ 0.232 µM) | – | 0.049 µg/mL (≈ 0.116 µM) | 0.049 µg/mL (≈ 0.116 µM) | 1.56 µg/mL (≈ 3.71 µM) | 0.391 µg/mL (≈ 0.928 µM) | – | 0.007 µg/mL (≈ 0.0166 µM) | 1.42 | – | – |
| C[C@@H](O)[C@H]1C(=O)N2C(C(=O)O)=C(S[C@@H]3CN[C@H](/C=C/c4ccns4)C3)[C@H](C)[C@H]12 | 0.013 µg/mL (≈ 0.0308 µM) | 0.391 µg/mL (≈ 0.928 µM) | 0.025 µg/mL (≈ 0.0593 µM) | 0.013 µg/mL (≈ 0.0308 µM) | 0.049 µg/mL (≈ 0.116 µM) | 0.025 µg/mL (≈ 0.0593 µM) | 0.049 µg/mL (≈ 0.116 µM) | 0.32 mg/kg | 0.049 µg/mL (≈ 0.116 µM) | 0.025 µg/mL (≈ 0.0593 µM) | 0.391 µg/mL (≈ 0.928 µM) | 0.195 µg/mL (≈ 0.463 µM) | 0.32 mg/kg | 0.004 µg/mL (≈ 0.00949 µM) | 3.36 | 1.27 mg/kg | 6.17 mg/kg |

Source: ChEMBL document CHEMBL1136553, “Synthesis and biological evaluation of novel 1 beta-methylcarbapenems with isothiazoloethenyl side chains” (Bioorg Med Chem Lett, 2003)
